# From the METLIN SMRT retention time set (Domingo-Almenara et al. 2019)
# Experiment: gradient 5% acetonitrile 3 min, to 50% in 2 min, to 85% in 15 min, held 3 min, 100 µL/min
# Settings: column: Zorbax Extend-C18 2.1 x 50 mm; eluents: water / acetonitrile, 0.1% formic acid
# Procedure, shortened: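 A Zorbax Extend-C18 column (2.1 × 50 mm, 1.8 μm) run at 100 μL/min with water and acetonitrile, both containing 0.1% formic acid, separated mixtures of ~100 pure standards. The HPLC was coupled to a quadrupole time-of-flight mass spectrometer operated in positive and negative ionization mode, with dead and dwell volumes of 40 μL and 900 μL. Each retention time was taken from a computationally picked adduct peak that was then manually inspected.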
row,Compound,RP-LC retention time [s]
1,O=C(NCCCN1CCCC1)c1cc(-c2cccnc2)nc2ccccc12,562
2,O=C(CCN1C(=O)C2C3C=CC(C3)C2C1=O)N1CCN(c2ccccn2)CC1 (centres undefined),572
3,CCCCN(CC)c1ccc(C(=O)O)cc1NC(=O)c1cccs1,1070
4,CC1=C(C(=O)OC(C)C)C(c2cccc([N+](=O)[O-])c2)C(C(=O)OC2CN(C(c3ccccc3)c3ccccc3)C2)=C(N)N1 (centres undefined),947
5,Cc1ccc2nc(C)cc(C(=O)NC(C)C)c2c1,595
6,CCCNC(=O)c1cnn(-c2ccc(SCC)nn2)c1C,777
7,COC(=O)c1c(NC(C)c2cccnc2)c2cccc(Cl)c2[nH]c1=O (centres undefined),572
8,COc1ccc(N2C(=O)C3N=NN(Cc4nc(-c5ccccc5)no4)C3C2=O)cc1 (centres undefined),912
9,Cc1csc(-c2cc(S(=O)(=O)NCCc3cccs3)c(C)n2C)n1,973
10,COc1ccc(-c2ncc3c(=O)n(CC(=O)Nc4ccc(OC)c(OC)c4)cnc3n2)cc1,750
11,CCc1cc(C(=O)Nc2ccc(C#N)cc2)nc2ccnn12,965
12,Cc1nc2cc(-c3noc(CNC(=O)Cc4ccccc4)n3)ccc2o1,780
13,CCCN1C(=O)Cc2ccccc2C1C(=O)NCc1cccc(Br)c1 (centres undefined),854
14,COc1ccc2c(c1)C1(CCN(C(=O)c3cccc(Cl)c3)C1)C(=O)N2C (centres undefined),831
15,Cc1cccc(OCC(=O)N2CCN(c3cc(=O)n(C(C)C)c(=O)n3C(C)C)CC2)c1,909
16,Cc1nn(CC(=O)NCC(C)C)c(=O)c2nc(-c3ccccc3)sc12,830
17,CCCn1nc2n(c1=O)CCN(Cc1cn[nH]c1-c1cc(OC)ccc1OC)C2,616
18,Cc1ccc(S(=O)(=O)N2CCCN(c3ccc(=O)n(-c4ccccc4)n3)CC2)cc1C,912
19,Cc1cc2c(C)c(C(=O)N3CCCCC3)oc2c(S(=O)(=O)N2CCN(c3ncccn3)CC2)c1C,1100

row,Compound,RP-LC retention time [s]
1,O=C(NC1CCN(c2cc(-c3ccc(Cl)cc3)[nH]n2)C1)c1ccncc1 (centres undefined),643
2,COc1ccc(C(=O)CC2(O)C(=O)Nc3ccccc32)cc1 (centres undefined),669
3,Cc1csc(NC(=O)c2ccc(C(=O)Nc3nc(C)cs3)cc2)n1,845
4,O=C(CN1CCN(Cc2ccc(F)cc2)C1=O)NCCc1ccccc1Cl,847
5,O=C(NC1CCCC1)N1CCC2(CC1)N(c1ccccc1)C(=O)CS2=O (centres undefined),648
6,COc1ccc(NC(=O)c2[nH]c3cc(C)sc3c2CN(C)C)cc1,666
7,COc1cccc(CN2CC[C@@](C)(O)[C@H](N3CCCC3)C2)c1,519
8,Cc1nc(-c2ccc(S(=O)(=O)Nc3cccnc3)cc2)co1,640
9,COc1cc(OC)cc(-c2noc(-c3nn(-c4ccc(C)cc4)ccc3=O)n2)c1,916
10,Cn1c(=O)c2nscc2n(CC(=O)NC2CCCCC2)c1=O,664
11,O=C(c1cnccn1)N1CCN(c2cc(-c3ccc(Cl)cc3)[nH]n2)CC1,722
12,c1ccc(-c2nc3cc(-c4noc(-c5ccc6nc[nH]c6c5)n4)ccc3o2)cc1,888
13,O=C(Cc1csc(SCc2cccc(Cl)c2)n1)Nc1ccc2c(c1)OCCO2,953
14,CCOc1ccc2ncc(C(=O)c3ccccc3)c(N3CCN(CC)CC3)c2c1,591
15,CCCCNC(=O)C(C)Sc1nc2nc(C)cc(C)n2n1 (centres undefined),679
16,CCN(CC)S(=O)(=O)c1cc(-c2nnc(-c3ccccc3)o2)ccc1OC,977
17,CCN(C(=O)Nc1ccccc1C(=O)OC)c1nc(-c2ccc(C3CCCCC3)cc2)cs1,590
18,Fc1ccc(-c2n[nH]c(C3CCN(C4CCCC4)CC3)n2)cc1,611
19,Cc1oc2ccn(C)c(=O)c2c1C(=O)NCc1cccc(Br)c1,947

row,Compound,RP-LC retention time [s]
1,COc1ccc(OCC(=O)N2CCCN(c3cc(=O)n(C(C)C)c(=O)n3C(C)C)CC2)cc1,834
2,O=C(CN1CCN(c2ccccn2)CC1)N1c2ccccc2CCc2ccccc21,636
3,CCOc1cccc(-c2noc(Cn3cnc4c(nnn4-c4ccccc4OC)c3=O)n2)c1,979
4,CCn1c(=O)c(C(=O)NC(C)C)nc2cc(C)c(C)cc21,803
5,CCCCc1ccc(NC(=O)N2CC(c3nc(C)no3)C3(CCOCC3)C2)cc1 (centres undefined),914
6,Cn1cccc1CN(C(=O)c1ccc(Cl)c(Cl)c1)C1CC1,994
7,CCOC(=O)c1nnc2c(-c3ccc(Cl)cc3)c(C)nn2c1N,872
8,O=C(Cc1cccs1)Nc1ccc2c(N3CCCCC3)ncnc2c1,594
9,O=C(CC(F)(F)F)N1CCC(c2noc(-c3ccccc3)n2)C1 (centres undefined),870
10,CN(C)CCNC(=O)C(C)(C)Oc1ccc(Cl)cc1,629
11,Cc1nc(-c2noc(-c3ccncc3)n2)cn1CC(=O)NC1CCCCC1,896
12,O=C(NCCc1nc2cccnc2n1C1CCCC1)NCc1ccco1,652
13,COc1cc(CN2CCCC2c2cc(C(C)C)no2)ccc1OCC(N)=O (centres undefined),584
14,Cc1ccc(C)c(CNC(=O)Cn2cnc3onc(C)c3c2=O)c1,764
15,COc1nn(C)cc1C(=O)Nc1cc(C)ns1,598
16,O=C(CN1C(=O)c2ccccc2C1=O)Nc1ccc2c(c1)N(C(=O)c1ccco1)CCC2,738
17,O=C(CN1C(=O)C2CCCCN2c2ccc(C(=O)N3CCCC3)cc21)NCC1COCCO1 (centres undefined),627
18,O=C1CCCCC(Cc2ccccc2)(C(=O)NCc2ccc(Cl)cc2)N1 (centres undefined),866

# Next, values leading:
row,RP-LC retention time [s],Compound
1,589,Cc1cccc(CN2C[C@@H]3C(=O)N(CCCN4CCCC4=O)C(=O)[C@@H]3C2)c1
2,839,Cc1ccc(NC(=O)Cn2nc3c(N4CCSCC4)nccn3c2=O)cc1C
3,894,Cn1ncc2c(N3CCCCC3)nc(C(=O)N3CCN(c4ccc(F)cc4)CC3)nc21
4,839,Cc1cc(F)ccc1NS(=O)(=O)c1cc2c(s1)CCN(C(=O)C1CC1)C2
5,594,CCOc1ccccc1NC(=O)CN1CCC(c2nnc(-c3ccco3)s2)CC1
6,618,Cc1cccc(CNC(=O)C2(C)Cn3cnc(C(=O)N4CCOCC4)c3C(=O)N2C2CC2)c1 (centres undefined)
7,1080,Cc1ccc(NC(=O)N2CCc3nc(-c4ccccc4)ncc3C2)c(Cl)c1
8,910,O=C(NCCC1CCN(S(=O)(=O)c2ccccc2)CC1)Nc1ccc(F)cc1F
9,638,CCN1C(=O)NC(c2ccc(C(F)(F)F)cc2)C2=C1CN(CCC(=O)N1CCOCC1)C2=O (centres undefined)
10,1040,CC1CCN(S(=O)(=O)c2ccc3c(c2)CCCC(=O)N3CC(=O)N(C)C2CCCCC2)CC1
11,653,CCCN1CCN(c2cc(C(=O)O)c3cc(NS(=O)(=O)c4cc(C)c(C)cc4C)ccc3n2)CC1
12,602,CN1CCC(NC(=O)c2cccc3c2CCN3C(=O)c2ccc(F)cc2)CC1
13,1000,Cc1ccc(N2CC(c3noc(-c4cc(F)ccc4F)n3)CC2=O)cc1 (centres undefined)
14,726,Cc1ccc(C(=O)NC2CCN(c3cc(-c4cccs4)[nH]n3)C2)cc1C (centres undefined)
15,653,CCOC(=O)c1cccc(Nc2c(C(=O)N3CCCC(C)C3)cnc3nc(C)ccc23)c1 (centres undefined)
16,712,O=C(NCc1ccc(C(F)(F)F)cc1)C1CCCN(c2cn[nH]c(=O)c2)C1 (centres undefined)
17,910,O=C(NCc1csc(-c2ccccc2)n1)C1CCN(S(=O)(=O)c2ccc(F)cc2)CC1

row,RP-LC retention time [s],Compound
1,748,O=S(=O)(NCc1ccc(F)cc1Cl)c1c[nH]c2ncccc12
2,600,CN1C(=O)C2CCCCN2c2ccc(C(=O)NCCCN3CCCCC3)cc21 (centres undefined)
3,1070,CCCc1ccc(S(=O)(=O)N2CCC(C)(C(=O)NCc3ccc(F)cc3)CC2)cc1
4,703,COc1ccc(N2CCN(C(=O)c3[nH]c(C)c(S(=O)(=O)N4CCOCC4)c3C)CC2)cc1
5,938,O=c1n(CCOc2ccc(F)cc2)nc2ccc(S(=O)(=O)N3CCCCC3)cn12
6,679,Cc1c(C(=O)Nc2ccccc2)sc2nc[nH]c(=O)c12
7,640,Cc1ccc(CN2CCc3nc(N4CCCC4)ncc3C2)cc1C
8,766,CCc1onc(C)c1C1CCCN1C(=O)NCc1ccc(F)cc1 (centres undefined)
9,776,O=C(c1[nH]nc2c1CCc1ccccc1-2)N1CCC(c2noc(-c3cccnc3)n2)C1 (centres undefined)
10,693,CNC(=O)C1CCCN(c2nc3ncn(CC(=O)Nc4ccc(F)c(Cl)c4)c(=O)c3s2)C1 (centres undefined)
11,769,COc1cccc(C(=O)N2CCC(C(=O)NCc3csc(-c4cccs4)n3)CC2)c1
12,1100,Cc1cc(-c2c(C)sc(C)c2S(=O)(=O)Nc2cccc(Br)c2)n[nH]1
13,812,O=C(NCc1cccs1)C1CCCN(S(=O)(=O)c2c[nH]c(C(=O)N3CCCCCC3)c2)C1 (centres undefined)
14,841,CCCNC(=O)N(C1CCOCC1)C1CCN(S(=O)(=O)c2ccc(C)cc2C)CC1
15,605,Cc1ccc(CNC(=O)C2CCN(c3cncnc3N3CCOCC3)CC2)o1
16,806,Cc1ccc(NS(=O)(=O)c2cc(-c3[nH]ncc3C(=O)N3CCCCC3)oc2C)cc1F
